For experiment [1], the system named is male rats of Wistar strain. Kind of experiment: animal or person. The format is in vivo. The settings on record: Rattus norvegicus, po, read-out: Haffner method, analgesic ED50.
Another experiment relates to male mice of ddN strain. Nature of the experiment: animal or person. The format is in vivo. The settings on record: Mus musculus, read-out: D'Amour-Smith method, analgesic ED50.
The test system of experiment [2] is female mice of ddN strain. The settings on record: mouse, in vivo.

Here are results for one compound from patent publication US3957788A (priority 1974, dated 1976).

The structures appear in SMILES notation. Where two headings read alike, the source gives them in different places. Where only a bound is given, the exact number is not on record here.

Consider `Cc1c(N(C)C)c(=O)n(-c2ccccc2)n1C` [compound 5, Aminopyrine], for which the figures for the median effective dose (ED50) (in experiment [1]; in the experiment with male mice of ddN strain (po); with male mice of ddN strain (sc)) were > 2560 mg/kg, ≥ 640 mg/kg and 233 mg/kg, respectively. Besides, the “Phenylquinone method (analgesic activity)” value in experiment [2] is 53.3.

One may read the ED50 as the midpoint of the dose-response relation.
